Where a SMILES comes first, the peptide text is derived from it. The star is where a group is joined. Cbz = O=C(OCc1ccccc1)*
Tests used:
Type in all cases: cell-based, human
[1] = test system: DLD-1 Ras Mut and Ras WT cells; experiment: Cell cycle and mitotic stage analysis (FACS, phospho-H3 Ser10, microscopy); conditions: for G2/M arrest, Ras Mut vs Ras WT cells: synthetic lethal concentration of drug; for Prometaphase arrest of mitotic cells: DLD-1 Ras Mut vs Ras WT; for Completion of mitosis (mitotic exit) after nocodazole release: BI-2536 for 2 hours
Protocol: (§1) For cell cycle analysis, cells were ethanol fixed and stained with PI and analyzed using a BD LSR II FACS analyzer (BD Bioscience). Data analysis was carried out with BD FACS Diva and FlowJo softwares. Cell cycle synchronization by double thymidine block was based on a previous protocol (Steegmaier et al., 2007). Briefly, cells were arrested with two rounds of 20-hour thymidine (2.5 mM) treatment approximately 12 hours apart and released into mitosis. […] For one-step arrest in G2/M or in prometaphase, cells were treated overnight with either RO-3306 (10 μM) or the Eg5 kinesin inhibitor monastrol (100 μM), respectively. For mitotic entry experiments, cells were synchronized in RO-3306 (10 uM) overnight prior to release. For mitotic release experiments, cells were released from overnight synchronization in RO-3306 (10 uM) into nocodazole ([…]) for 4 hours and mitotic cells were collected by mitotic shake-off. Cells were then release by washing out the nocodazole. For the analysis of lagging chromosomes and mitotic index by microscopy, cells seeded onto coverslips were arrested in mitosis with 100 μM monastrol for 16 hours. Cells were washed and released into fresh media and were fixed at ten minute intervals for two hours in PHEM buffer+2% formaldehyde+0.5% triton-X100. Cells were immunostained with DAPI to visualized DNA and antibodies to phospho-histone H3 Ser10 (pH3S10) and to α-tubulin to identify mitotic cells at different stages. Independent triplicates with >100 cells per replicate were analyzed. For measuring mitotic index by FACS, cells were trypsinized, fixed with ethanol and stained with PI and pH3S10 antibody.

[2] = test system: DLD-1 Ras Mut cells vs DLD-1 Ras WT cells; experiment: Competition assay, GFP-labeled Ras Mut vs Ras WT cells, FACS; conditions: for Viability/fitness of Ras Mut cells after transient treatment: DLD-1, 24 hours treatment, drug washed out, 3 additional days before FACS; for Fitness of Ras Mut cells relative to Ras WT cells (synthetic lethality with mutant Ras): DLD-1 isogenic pair, drug present for 4-5 days
Protocol: E. Schematic of the competition assay used to validate shRNAs from the primary screen. Ras Mut cells expressing GFP and Ras WT cells were mixed and co-infected with the same retroviral shRNA. The Mut to WT cell ratio at the end of the experiment is measured by FACS. The percentage of Ras Mut cells in the mixture infected with a candidate RSL shRNA was normalized against that of a control shRNA targeting firefly luciferase (FF) within the same experiment to generate a normalized fitness score for the Ras Mut cells. Variations of this assay are also used to test the effect of siRNAs and chemical inhibitors.
Next, a competition assay was devised to test the reproducibility of candidate RSL shRNAs from the primary screen (Torrance et al., 2001; Smogorzewska et al., 2007). Individual shRNAs were packaged into retroviruses and infected into a 50:50 mixture of GFP+ DLD-1 Ras Mut cells and GFP (colorless) DLD-1 Ras WT cells. The relative ratio of Ras Mut versus WT cells at ˜7 days post shRNA infection was analyzed by FACS and compared to that of a mixed population infected with a negative control shRNA targeting luciferase (FIG. 8E). […] To rule out cell-line specific effect of candidate RSL shRNAs, candidates were tested using the competition assay in a second isogenic pair of colorectal cancer cell lines: HCT116 KRAS WT/G13D and HCT116 KRAS WT/−, which were derived with a similar method as the DLD-1 isogenic pair (Shirasawa et al., 1993; Torrance et al., 2001).
The competition assay used to test candidate genes from the screen was modified from a previous protocol (Torrance et al., 2001; Smogorzewska et al., 2007) and was carried out in 96-well plates in independent triplicates. For this assay, 1,000 each of GFP-labeled Ras Mut and unlabeled Ras WT cells were seeded in each well. For retroviral shRNA infection, cells were infected at an MOI of 1-5, selected for 3 days with puromycin and propagated for an additional 4-5 days before analyzed by FACS. An shRNA targeting firefly luciferase (shRNA-FF) was used as the negative control. For siRNA transfection, cells were transfected with siGenome siRNAs (Dharmacon) using Lipofectamine RNAiMAX (InVitrogen) and analyzed by FACS 5-6 days post transfection An siRNA targeting luciferase (Luc) was used as the negative control. […] Untreated wells were used as negative controls. To obtain normalized fitness of Ras Mut cells that can be compared across experiments, the percentage of Ras Mut cells in each sample was normalized to that in the control samples of that experiment.

[3] = test system: HCT116 Ras Mut and Ras WT cells
Protocol: as §1, with “Cells were immunostained with DAPI to visualized DNA and antibodies to phospho-histone H3 Ser10 (pH3S10) and to α-tubulin to identify mitotic cells at different stages.” left out, “For measuring mitotic index by FACS, cells were trypsinized, fixed with ethanol and stained with PI and pH3S10 antibody.” left out

[4] = test system: HCT116 PI3K Mut cells vs PI3K WT cells; experiment: Competition assay, PI3K Mut vs PI3K WT cells; conditions: HCT116 isogenic for the PI3K oncogene
[5] = test system: DLD-1 PI3K Mut cells vs PI3K WT cells; experiment: Competition assay, PI3K Mut vs PI3K WT cells; conditions: DLD-1 isogenic for the PI3K oncogene
[6] = test system: HCT116 Ras Mut cells vs HCT116 Ras WT cells; experiment: Competition assay, GFP-labeled Ras Mut vs Ras WT cells, FACS; conditions: HCT116 isogenic pair; drug present for 4-5 days
Protocol: Next, a competition assay was devised to test the reproducibility of candidate RSL shRNAs from the primary screen (Torrance et al., 2001; Smogorzewska et al., 2007). Individual shRNAs were packaged into retroviruses and infected into a 50:50 mixture of GFP+ DLD-1 Ras Mut cells and GFP (colorless) DLD-1 Ras WT cells. The relative ratio of Ras Mut versus WT cells at ˜7 days post shRNA infection was analyzed by FACS and compared to that of a mixed population infected with a negative control shRNA targeting luciferase (FIG. 8E). […] Without wishing to be bound by theory, a possible cause for the higher false positive rate in the primary screen might due to the fact that for the synthetic lethal analysis the difference between two microarray datasets is extracted and coupled with the fact that the secondary assay is much shorter than the original discovery assay. To rule out cell-line specific effect of candidate RSL shRNAs, candidates were tested using the competition assay in a second isogenic pair of colorectal cancer cell lines: HCT116 KRAS WT/G13D and HCT116 KRAS WT/−, which were derived with a similar method as the DLD-1 isogenic pair (Shirasawa et al., 1993; Torrance et al., 2001).
The competition assay used to test candidate genes from the screen was modified from a previous protocol (Torrance et al., 2001; Smogorzewska et al., 2007) and was carried out in 96-well plates in independent triplicates. For this assay, 1,000 each of GFP-labeled Ras Mut and unlabeled Ras WT cells were seeded in each well. For retroviral shRNA infection, cells were infected at an MOI of 1-5, selected for 3 days with puromycin and propagated for an additional 4-5 days before analyzed by FACS. An shRNA targeting firefly luciferase (shRNA-FF) was used as the negative control. For siRNA transfection, cells were transfected with siGenome siRNAs (Dharmacon) using Lipofectamine RNAiMAX (InVitrogen) and analyzed by FACS 5-6 days post transfection An siRNA targeting luciferase (Luc) was used as the negative control. For drug treatment, cells were treated with drugs for 4-5 days prior to FACS analysis. Untreated wells were used as negative controls. To obtain normalized fitness of Ras Mut cells that can be compared across experiments, the percentage of Ras Mut cells in each sample was normalized to that in the control samples of that experiment.

[7] = test system: DLD-1 Ras Mut cells; experiment: CellTiter GLO cell viability assay; conditions: DLD-1 Ras Mut vs WT measured independently
Protocol: The DLD-1 and HCT116 isogenic cells were kind gifts from Dr. Bert Vogelstein (Johns Hopkins University School of Medicine) and were maintained in McCoy's 5A media supplemented with 10% FBS and antibiotics. For proliferation assays, 10,000 cells were seeded in each well of a 24-well plate and cell number was measured using CellTiterGLO (Promega). For adherent colony assays, 1000 cells were seeded in each well of a 6-well plate and colonies were counted 10 days later by Coomassie staining. For anchorage independent colony assays, 1000 cells were seeded in each well of a 6-well plate in media containing 0.35% low-melting point agarose and colonies were counted 3 weeks later by crystal violet staining. The PCR primers used to amplify HH barcodes from genomic DNA samples are JH353F 5′-[…]-3′ and HHR2L 5′-[…]-3′. […] Paclitaxel, nocodazole, MG132 and monastrol were from Sigma-Aldrich. RO-3306 was from EMD Calbiochem. Bortezomib was from LC Laboratories. Rabbit antibody against phospho-PLK1 T210 was from Abcam. Rabbit phosphoH3-S10 antibody was from Covance. Mouse antibodies against PLK1, K-Ras and tubulin were from Santa Cruz Biotechnologies. Rabbit anti-COPS4 antibody was from Bethyl Laboratories.

| Compound | G2/M arrest, Ras Mut vs Ras WT cells ([1]; DLD-1) | Prometaphase arrest of mitotic cells [1] | Viability/fitness of Ras Mut cells after transient treatment [2] | Fitness of Ras Mut cells relative to Ras WT cells (synthetic lethality with mutant Ras) [2] | Cell cycle accumulation of Ras Mut cells by FACS [3] | Fitness of PI3K Mut cells vs PI3K WT cells [4] | Fitness of PI3K Mut cells vs PI3K WT cells [5] | Fitness of Ras Mut cells relative to Ras WT cells (synthetic lethality with mutant Ras) [6] | G2/M accumulation, cell cycle distribution ([1]; DLD-1, 25 nM or 50 nM BI-2536 for one day) | Sub-G1 population (cell death) ([1]; DLD-1, prolonged treatment with BI-2536 (25 nM) for 2 days) | Completion of mitosis (mitotic exit) after nocodazole release ([1]; DLD-1 Ras Mut cells) | Completion of mitosis (mitotic exit) after nocodazole release ([1]; DLD-1 Ras WT cells) | Mitotic entry after release from RO-3306 into nocodazole ([1]; DLD-1 Ras WT or Ras Mut, synthetic lethal concentration of BI-2536, 1 hour) | Concentration at which the synthetic lethal effect is strongest ([2]; DLD-1 cells) | Toxicity by CellTiter GLO cell viability [7] |
| --- | --- | --- | --- | --- | --- | --- | --- | --- | --- | --- | --- | --- | --- | --- | --- |
| CC(C)C[C@@H](C=O)NC(=O)[C@H](CC(C)C)NC(=O)[C@H](CC(C)C)NC(=O)OCc1ccccc1 [MG132] (Cbz-Leu-Leu-Leu-aldehyde) | more sensitive | more profound prometaphase block of the Ras Mut cells | sufficient to selectively impair the viability of Ras Mut cells | selectively decreased the fitness of DLD-1 Ras Mut cells in a dose dependent fashion | preferentially induce the accumulation of Ras Mut HCT116 cells | very little difference | more resistant to these inhibitors relative to DLD-1 PI3K WT cells | selectively decrease the fitness of HCT116 Ras Mut cells | – | – | – | – | – | – | – |
| CC(=O)O[C@H]1C(=O)[C@@]2(C)[C@H]([C@H](OC(=O)c3ccccc3)[C@]3(O)C[C@H](OC(=O)[C@H](O)[C@@H](NC(=O)c4ccccc4)c4ccccc4)C(C)=C1C3(C)C)[C@]1(OC(C)=O)CO[C@@H]1C[C@@H]2O [paclitaxel] | strong G2/M arrest in Ras Mut cells but not in Ras WT cells | striking pro-metaphase block in the Ras mutant cells | sufficient to selectively impair the viability of Ras Mut cells | increased sensitivity | – | very little difference | more resistant to these inhibitors relative to DLD-1 PI3K WT cells | increased sensitivity | – | – | – | – | – | – | – |
| CC[C@@H]1C(=O)N(C)c2cnc(Nc3ccc(C(=O)NC4CCN(C)CC4)cc3OC)nc2N1C1CCCC1 [BI-2536] | – | strong block of Ras Mut cells in prometaphase | sufficient to selectively impair the viability of Ras Mut cells | – | – | very little difference | more resistant to these inhibitors relative to DLD-1 PI3K WT cells | – | Ras Mut cells show a profound G2/M accumulation | elevated sub-G1 population in Ras Mut cells | profound delay in mitotic exit in Ras Mut cells | minimal effect on Ras WT cells | unaffected | approximately 25 nM | enhanced toxicity in DLD-1 Ras Mut cells |
| CC(C)C[C@H](NC(=O)[C@H](Cc1ccccc1)NC(=O)c1cnccn1)B(O)O [bortezomib] | more sensitive | more profound prometaphase block of the Ras Mut cells | sufficient to selectively impair the viability of Ras Mut cells | selectively decreased the fitness of DLD-1 Ras Mut cells in a dose dependent fashion | preferentially induce the accumulation of Ras Mut HCT116 cells | very little difference | more resistant to these inhibitors relative to DLD-1 PI3K WT cells | selectively decrease the fitness of HCT116 Ras Mut cells | – | – | – | – | – | – | – |
| N#CC(=C(/N)Sc1ccccc1N)/C(C#N)=C(\N)Sc1ccccc1N [U0126] | – | – | – | At no concentration of these drugs was selective toxicity towards Ras Mut cells compared to Ras WT cells observed | – | – | – | – | – | – | – | – | – | – | – |
| COC(=O)Nc1nc2ccc(C(=O)c3cccs3)cc2[nH]1 [nocodazole] | – | – | – | no synthetic lethality with mutant Ras | – | – | – | no synthetic lethality with mutant Ras | – | – | – | – | – | – | – |
